Measured values as given in patent US20230172204A1 (BASF SE, priority 2020, published 2023).

Key:
[1] = system: Phakopsora pachyrhizi (F129L); test: Protective control of soybean rust on soybeans (PHAKPA P6); assay type: in vivo; conditions: for % PHAKPA (F129L) Disease level P6 at 4 ppm: protective P6, 4 ppm; for % PHAKPA (F129L) Disease level P6 at 4 ppm / % PHAKPA (F129L) Disease level P6 at 16 ppm: soybean rust F129L; for % PHAKPA (F129L) Disease level P6 at 16 ppm: protective P6, 16 ppm
[2] = system: Phakopsora pachyrhizi (F129L); test: Protective control of soybean rust on soybeans (PHAKPA P2); assay type: in vivo; conditions: for % PHAKPA (F129L) Disease level P2 at 4 ppm: protective P2, 4 ppm; for % PHAKPA (F129L) Disease level P2 at 4 ppm / % PHAKPA (F129L) Disease level P2 at 16 ppm: soybean rust F129L; for % PHAKPA (F129L) Disease level P2 at 16 ppm: protective P2, 16 ppm

Structure (SMILES) | % PHAKPA (F129L) Disease level P6 at 4 ppm [1] [%] | % PHAKPA (F129L) Disease level P6 at 16 ppm [1] [%] | % PHAKPA (F129L) Disease level P2 at 4 ppm [2] [%] | % PHAKPA (F129L) Disease level P2 at 16 ppm [2] [%] | PHAKPA (F129L) Disease level (%) P6 at 16 ppm ([1]; P6 protective, 16 ppm, % diseased leaf area) [%] | PHAKPA (F129L) Disease level (%) P2 at 16 ppm ([2]; P2 protective, 16 ppm, % diseased leaf area) [%] | PHAKPA (F129L) Disease level (%) P6 at 4 ppm ([1]; P6 protective, 4 ppm, % diseased leaf area) [%] | PHAKPA (F129L) Disease level (%) P2 at 4 ppm ([2]; P2 protective, 4 ppm, % diseased leaf area) [%]
CNC(=O)/C(=N/OC)c1cccc(C)c1CO/N=C(\C)c1ccccc1C#N [compound 225] | 100 | 97 | 83 | 27 |  |  |  | 
CNC(=O)/C(=N/OC)c1cccc(C)c1CO/N=C(\C)c1ccc(OC)cc1 [compound 164] | 27 | 0 | 5 | 0 |  |  |  | 
CNC(=O)/C(=N/OC)c1cccc(C)c1CO/N=C(\C)c1ccc(Cl)c(F)c1CC(F)(F)F [compound 412] | 40 | 6 | 47 | 6 |  |  |  | 
CNC(=O)/C(=N/OC)c1cccc(C)c1CO/N=C(\C)c1cc(C#N)cc(C(F)(F)F)c1 [compound 46] | 90 | 57 | 63 | 50 |  |  |  | 
CNC(=O)/C(=N/OC)c1cccc(C)c1CO/N=C(/c1ccc(Cl)cc1)C(F)F [compound 22] | 100 | 93 | 100 | 90 |  |  |  | 
CCc1ccccc1/C(C)=N/OCc1c(C)cccc1/C(=N\OC)C(=O)NC [compound 176] | 100 | 90 | 100 | 100 |  |  |  | 
CO/N=C(/C(=O)OC)c1cccc(C)c1CO/N=C(\C)c1c(F)cc(Br)cc1C(F)(F)F [compound 368] | 90 | 73 | 83 | 47 |  |  |  | 
CO/N=C(/C(=O)OC)c1cccc(C)c1CO/N=C(\C)c1cccc(F)c1F [compound 177] | 87 | 47 | 100 | 21 |  |  |  | 
CO/N=C(/C(=O)OC)c1cccc(C)c1CO/N=C(\C)c1cccc(C2CC2)c1 [compound 297] | 87 | 37 | 90 | 37 |  |  |  | 
CNC(=O)/C(=N/OC)c1ccccc1CO/N=C(\C)c1ccccc1OC [reference compound] |  |  |  |  | 80 | 87 |  | 
CNC(=O)/C(=N/OC)c1cccc(C)c1CO/N=C(\C)c1ccc(F)cc1Cl [compound 262] | 47 | 4 | 63 | 1 |  |  |  | 
CNC(=O)/C(=N/OC)c1cccc(C)c1CO/N=C(/c1ccccc1)C(F)F [Ex. 73] | 19 |  | 0 |  |  |  | 37 | 1
CO/N=C(/C(=O)OC)c1cccc(C)c1CO/N=C(\C)c1cccc(CC2COC2)c1 [compound 160] | 87 | 90 | 100 | 97 |  |  |  | 
CNC(=O)/C(=N/OC)c1cccc(C)c1CO/N=C(\C)c1cc(Cl)cc(Cl)c1F [compound 167] | 9 | 0 | 2 | 0 |  |  |  | 
COC=C(C(=O)OC)c1cccc(C)c1CON=C(C)c1ccc(OC(F)(F)F)cc1Cl [compound 463] | 3 | 0 | 6 | 0 |  |  |  | 
CO/N=C(/C(=O)OC)c1cccc(C)c1CO/N=C(\C)c1ccccc1OC(F)(F)F [compound 236] | 97 | 100 | 97 | 77 |  |  |  | 
CO/N=C(/C(=O)OC)c1cccc(C)c1CO/N=C(\C)c1ccc(Oc2ccc(Cl)cc2)cc1C(F)(F)F [compound 335] | 80 | 25 | 77 | 53 |  |  |  | 
CNC(=O)/C(=N/OC)c1cccc(C)c1CO/N=C(\C)c1c(Cl)cccc1Cl [compound 173] | 97 | 17 | 100 | 53 |  |  |  | 
